Test results taken from patent US9446024B2, “Formulations for the treatment of vaginal disorders” (Mission Pharmacal Company, priority 2013, dated 2016).

What was measured:
Experiment in all cases: MIC determination, agar dilution
Type in all cases: cell-based
[1] = tested on: Lactobacillus iners; conditions: each identified strain
[2] = tested on: Mobiluncus curtisii; conditions: each identified strain
[3] = tested on: Lactobacillus vaginalis; conditions: Limosilactobacillus vaginalis; each identified strain
[4] = tested on: Lactobacillus gasseri; conditions: each identified strain
[5] = tested on: Lactobacillus jensenii; conditions: each identified strain
[6] = tested on: Lactobacillus crispatus; conditions: non-reference strain

CCS(=O)(=O)CCn1c([N+](=O)[O-])cnc1C [tinidazole]
MIC [1]: > 150 µg/mL
MIC [2]: > 150 µg/mL
MIC [3]: > 150 µg/mL
MIC [4]: > 150 µg/mL
MIC [5]: > 150 µg/mL
growth inhibition at the highest concentration tested [6]: unaffected
